pEC50, pIC50: −log10 of the molar value. Blank lines part the entries; values can stand above or below the compound they belong to.
What was measured:
[1] = biological target: Nuclear receptor subfamily 1 group D member 2 (Homo sapiens, UniProt Q14995); assay: Affinity On-target Cellular interaction: (Reporter gene assay (HEK293T cells)) EUB0001152a NR1D2; type: functional, cell-based, HEK-293T; design: mode of action Agonist, recommended concentration 10 uM
[2] = biological target: Nuclear receptor subfamily 1 group I member 3 (Homo sapiens, UniProt Q14994); assay: Affinity On-target Cellular interaction: (Reporter gene assay (HEK293T cells)) EUB0000551aCl NR1I3; type: functional, cell-based, HEK-293T; design: mode of action Antagonist, recommended concentration 1 uM
[3] = biological target: T1, Peroxisome proliferator-activated receptor delta (Homo sapiens, UniProt Q03181); assay: Affinity On-target Cellular interaction: (Reporter gene assay (HEK293T cells)) EUB0001151a PPARD; type: functional, cell-based, HEK-293T; design: mode of action Antagonist, recommended concentration 1 uM
T1 sequence (Q03181 whole entry): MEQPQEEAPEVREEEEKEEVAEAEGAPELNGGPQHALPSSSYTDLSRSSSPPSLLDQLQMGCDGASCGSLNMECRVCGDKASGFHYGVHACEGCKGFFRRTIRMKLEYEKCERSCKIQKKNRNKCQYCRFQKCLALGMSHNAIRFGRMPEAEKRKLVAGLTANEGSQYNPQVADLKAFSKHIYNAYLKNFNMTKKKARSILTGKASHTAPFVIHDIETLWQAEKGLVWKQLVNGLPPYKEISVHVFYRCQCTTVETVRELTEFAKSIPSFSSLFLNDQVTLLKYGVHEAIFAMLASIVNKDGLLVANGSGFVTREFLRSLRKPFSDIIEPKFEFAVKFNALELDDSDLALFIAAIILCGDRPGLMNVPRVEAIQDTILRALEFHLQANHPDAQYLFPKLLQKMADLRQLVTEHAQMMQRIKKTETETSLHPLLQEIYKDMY

[4] = biological target: T2, Peroxisome proliferator-activated receptor gamma (Homo sapiens, UniProt P37231); assay: Affinity On-target Cellular interaction: (Reporter gene assay (HEK293T cells)) EUB0001143a PPARG; type: functional, cell-based, HEK-293T; design: mode of action Agonist, recommended concentration 1 uM
T2 sequence (P37231 whole entry): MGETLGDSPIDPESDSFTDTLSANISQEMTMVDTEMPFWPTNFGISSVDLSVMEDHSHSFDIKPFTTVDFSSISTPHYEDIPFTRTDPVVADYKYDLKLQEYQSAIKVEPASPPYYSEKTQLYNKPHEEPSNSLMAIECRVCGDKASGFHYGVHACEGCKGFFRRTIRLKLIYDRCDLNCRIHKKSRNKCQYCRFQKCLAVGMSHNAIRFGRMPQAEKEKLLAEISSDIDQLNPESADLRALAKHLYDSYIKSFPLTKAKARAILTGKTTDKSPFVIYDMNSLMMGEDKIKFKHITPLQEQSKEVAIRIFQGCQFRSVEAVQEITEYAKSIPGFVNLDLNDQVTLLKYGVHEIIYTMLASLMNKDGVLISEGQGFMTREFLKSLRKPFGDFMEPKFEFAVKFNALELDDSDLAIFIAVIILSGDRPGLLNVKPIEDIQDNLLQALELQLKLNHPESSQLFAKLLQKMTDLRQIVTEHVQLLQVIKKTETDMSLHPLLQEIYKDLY

[5] = biological target: T1, Peroxisome proliferator-activated receptor delta; assay: Affinity On-target Cellular interaction: (Reporter gene assay (HEK293T cells)) EUB0000188b PPARD; type: functional, cell-based, HEK-293T; design: mode of action Agonist, recommended concentration 1 uM
[6] = biological target: T3, Peroxisome proliferator-activated receptor alpha (Homo sapiens, UniProt Q07869); assay: Affinity On-target Cellular interaction: (Reporter gene assay (HEK293T cells)) EUB0000188b PPARA; type: functional, cell-based, HEK-293T; design: mode of action Agonist, recommended concentration 1 uM
T3 sequence (Q07869 whole entry): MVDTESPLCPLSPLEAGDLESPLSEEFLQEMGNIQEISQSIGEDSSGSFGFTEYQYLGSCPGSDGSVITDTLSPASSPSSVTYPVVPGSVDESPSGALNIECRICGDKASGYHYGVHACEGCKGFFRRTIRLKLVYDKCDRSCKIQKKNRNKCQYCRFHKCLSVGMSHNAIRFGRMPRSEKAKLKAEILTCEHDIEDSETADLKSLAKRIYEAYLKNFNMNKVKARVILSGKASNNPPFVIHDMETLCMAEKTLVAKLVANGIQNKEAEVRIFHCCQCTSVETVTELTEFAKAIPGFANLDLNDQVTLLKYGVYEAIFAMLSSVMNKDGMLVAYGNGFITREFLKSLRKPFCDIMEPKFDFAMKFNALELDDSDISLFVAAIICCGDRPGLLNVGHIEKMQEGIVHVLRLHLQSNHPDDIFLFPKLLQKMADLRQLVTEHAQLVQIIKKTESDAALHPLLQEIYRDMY

[7] = biological target: T2, Peroxisome proliferator-activated receptor gamma; assay: Affinity On-target Cellular interaction: (Reporter gene assay (HEK293T cells)) EUB0000188b PPARG; type: functional, cell-based, HEK-293T; design: mode of action Agonist, recommended concentration 1 uM
[8] = biological target: T1, Peroxisome proliferator-activated receptor delta; assay: Affinity On-target Cellular interaction: (Reporter gene assay (HEK293T cells)) EUB0001141a PPARD; type: functional, cell-based, HEK-293T; design: mode of action Agonist, recommended concentration 1 uM
Vitamin D3 receptor = Vitamin D3 receptor (Homo sapiens, UniProt P11473); assay: Affinity On-target Cellular interaction: (Reporter gene assay (HEK293T cells)) EUB0000583a VDR; type: functional, cell-based, HEK-293T; design: mode of action Agonist, recommended concentration 1 uM
[9] = biological target: Lysine-specific demethylase 4A (Homo sapiens) (UniProt O75164); assay: Affinity On-target Cellular interaction: (Cellular thermal shift assay (CETSA), U2OS cells) EUB0002543a KDM4A; type: functional, cell-based; design: recommended concentration 1 uM; settings: Affinity On-target Cellular Source Knowledge https://www.nature.com/articles/ncomms14773#Tab1
[10] = biological target: T2, Peroxisome proliferator-activated receptor gamma; assay: Affinity On-target Cellular interaction: (Reporter gene assay (HEK293T cells)) EUB0000571a PPARG; type: functional, cell-based, HEK-293T; design: mode of action Agonist, recommended concentration 1 uM
[11] = biological target: T3, Peroxisome proliferator-activated receptor alpha; assay: Affinity On-target Cellular interaction: (Reporter gene assay (HEK293T cells)) EUB0001140a PPARA; type: functional, cell-based, HEK-293T; design: mode of action Agonist, recommended concentration 1 uM
[12] = biological target: T4, Oxysterols receptor LXR-beta (Homo sapiens, UniProt P55055); assay: Affinity On-target Cellular interaction: (Reporter gene assay (HEK293T cells)) EUB0000572aCl NR1H2; type: functional, cell-based, HEK-293T; design: mode of action Agonist, recommended concentration 3 uM
T4 sequence (P55055 whole entry): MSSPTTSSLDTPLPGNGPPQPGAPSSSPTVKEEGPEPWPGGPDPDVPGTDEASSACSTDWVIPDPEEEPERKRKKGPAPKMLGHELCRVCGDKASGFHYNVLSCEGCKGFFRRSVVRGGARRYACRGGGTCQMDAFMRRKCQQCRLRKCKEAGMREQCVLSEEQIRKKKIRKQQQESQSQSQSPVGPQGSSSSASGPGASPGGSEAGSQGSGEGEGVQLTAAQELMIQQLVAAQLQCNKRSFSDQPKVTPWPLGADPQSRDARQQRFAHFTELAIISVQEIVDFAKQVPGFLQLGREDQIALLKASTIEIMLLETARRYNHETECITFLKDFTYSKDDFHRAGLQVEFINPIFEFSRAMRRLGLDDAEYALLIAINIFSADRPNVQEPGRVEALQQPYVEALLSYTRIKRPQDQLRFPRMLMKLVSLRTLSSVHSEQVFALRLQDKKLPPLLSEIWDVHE

[13] = biological target: T1, Peroxisome proliferator-activated receptor delta

Chain of Vitamin D3 receptor (P11473 whole entry): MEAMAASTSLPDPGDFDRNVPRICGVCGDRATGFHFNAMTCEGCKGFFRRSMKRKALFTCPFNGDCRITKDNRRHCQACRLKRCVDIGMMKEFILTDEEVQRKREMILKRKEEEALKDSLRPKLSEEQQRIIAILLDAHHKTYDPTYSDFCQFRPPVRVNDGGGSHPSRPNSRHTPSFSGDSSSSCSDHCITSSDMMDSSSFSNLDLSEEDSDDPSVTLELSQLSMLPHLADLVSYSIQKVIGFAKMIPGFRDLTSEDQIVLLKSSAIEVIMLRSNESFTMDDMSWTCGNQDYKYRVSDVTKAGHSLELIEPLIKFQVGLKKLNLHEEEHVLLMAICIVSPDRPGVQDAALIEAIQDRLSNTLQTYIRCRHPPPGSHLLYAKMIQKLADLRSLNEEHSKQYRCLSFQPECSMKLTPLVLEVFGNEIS
Chain of Nuclear receptor subfamily 1 group D member 2 (Q14995 whole entry): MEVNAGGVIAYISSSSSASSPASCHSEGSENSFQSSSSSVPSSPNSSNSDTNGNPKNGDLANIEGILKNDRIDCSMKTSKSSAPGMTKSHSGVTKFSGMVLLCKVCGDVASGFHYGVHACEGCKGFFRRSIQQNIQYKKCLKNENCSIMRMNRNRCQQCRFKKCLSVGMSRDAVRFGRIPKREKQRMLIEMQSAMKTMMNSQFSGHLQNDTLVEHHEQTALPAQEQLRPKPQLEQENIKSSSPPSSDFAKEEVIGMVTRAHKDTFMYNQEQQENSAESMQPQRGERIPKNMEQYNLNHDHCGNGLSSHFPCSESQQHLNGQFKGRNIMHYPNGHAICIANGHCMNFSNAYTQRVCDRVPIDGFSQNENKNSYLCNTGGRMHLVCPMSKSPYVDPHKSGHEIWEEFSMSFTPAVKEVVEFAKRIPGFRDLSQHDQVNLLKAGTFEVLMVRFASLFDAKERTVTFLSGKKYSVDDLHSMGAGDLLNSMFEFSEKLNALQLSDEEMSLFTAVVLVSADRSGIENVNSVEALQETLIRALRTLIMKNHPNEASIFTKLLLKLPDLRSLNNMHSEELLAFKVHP
Chain of Lysine-specific demethylase 4A (Homo sapiens) (O75164 whole entry): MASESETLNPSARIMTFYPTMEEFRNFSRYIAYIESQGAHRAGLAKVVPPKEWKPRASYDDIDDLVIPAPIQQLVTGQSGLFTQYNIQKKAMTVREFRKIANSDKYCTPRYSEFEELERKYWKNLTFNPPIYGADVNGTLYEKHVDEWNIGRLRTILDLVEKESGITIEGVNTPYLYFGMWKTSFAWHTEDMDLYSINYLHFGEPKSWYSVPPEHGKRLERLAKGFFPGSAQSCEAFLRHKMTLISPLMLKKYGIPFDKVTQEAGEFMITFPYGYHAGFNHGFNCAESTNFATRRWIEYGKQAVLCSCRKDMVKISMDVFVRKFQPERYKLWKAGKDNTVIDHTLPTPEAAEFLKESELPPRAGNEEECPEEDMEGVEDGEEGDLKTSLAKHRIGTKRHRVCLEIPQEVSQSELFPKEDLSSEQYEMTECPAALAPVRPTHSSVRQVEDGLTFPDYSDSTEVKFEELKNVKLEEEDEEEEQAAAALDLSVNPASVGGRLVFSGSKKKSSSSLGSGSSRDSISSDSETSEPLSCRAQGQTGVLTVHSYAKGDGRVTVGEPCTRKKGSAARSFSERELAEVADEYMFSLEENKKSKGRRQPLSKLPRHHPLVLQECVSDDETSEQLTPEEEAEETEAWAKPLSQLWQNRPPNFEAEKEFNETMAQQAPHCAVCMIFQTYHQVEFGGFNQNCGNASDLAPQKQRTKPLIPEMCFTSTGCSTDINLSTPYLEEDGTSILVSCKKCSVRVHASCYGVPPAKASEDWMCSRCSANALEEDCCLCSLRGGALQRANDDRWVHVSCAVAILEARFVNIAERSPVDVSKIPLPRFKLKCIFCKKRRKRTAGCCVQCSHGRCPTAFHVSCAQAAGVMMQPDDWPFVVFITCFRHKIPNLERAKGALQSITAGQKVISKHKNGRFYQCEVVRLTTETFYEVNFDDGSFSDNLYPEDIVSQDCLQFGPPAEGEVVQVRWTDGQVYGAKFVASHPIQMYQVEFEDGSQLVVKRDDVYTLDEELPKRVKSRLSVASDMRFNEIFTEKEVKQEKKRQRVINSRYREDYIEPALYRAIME
Chain of Nuclear receptor subfamily 1 group I member 3 (Q14994 whole entry): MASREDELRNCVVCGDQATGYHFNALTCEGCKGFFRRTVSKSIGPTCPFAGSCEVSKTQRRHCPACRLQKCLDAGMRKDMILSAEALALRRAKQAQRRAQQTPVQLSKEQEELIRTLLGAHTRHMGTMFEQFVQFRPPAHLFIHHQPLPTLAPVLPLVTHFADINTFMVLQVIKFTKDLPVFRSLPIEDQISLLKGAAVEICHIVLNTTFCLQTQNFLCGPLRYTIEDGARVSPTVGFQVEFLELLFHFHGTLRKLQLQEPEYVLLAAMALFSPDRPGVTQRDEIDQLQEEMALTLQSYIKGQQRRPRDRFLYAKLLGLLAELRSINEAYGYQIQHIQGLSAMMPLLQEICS

Structure (SMILES): Cc1cccc(CN2CCN(C(c3ccccc3)c3ccc(Cl)cc3)CC2)c1 (centres undefined)
pIC50 [2]: 7.20

Structure (SMILES): COc1cc2c(cc1CC=C(C)C)C(=O)C[C@@H](c1ccc(O)cc1)O2 [BAVACHININ A]
pEC50 [4]: 6.14

Structure (SMILES): Cc1nc(-c2ccc(C(F)(F)F)cc2)sc1C(=O)NCc1ccc(OC(C)(C)C(=O)O)cc1 [GW590735]
pEC50 [8]: 6.80

Structure (SMILES): CC(C)[C@@H]1NC(=O)[C@H](Cc2ccc(O)cc2)NC(=O)[C@@H](CC(=O)O)NC(=O)S[C@@H](C(=O)O)NC(=O)[C@H]([C@H](C)O)NC(=O)[C@H](Cc2ccc(O)cc2)NC(=O)[C@H](Cc2c[nH]c3ccccc23)NC(=O)[C@H](CCCNC(=N)N)NC(=O)[C@H](Cc2c[nH]c3ccccc23)NC(=O)[C@H](C)NC(=O)[C@H](CO)NC(=O)[C@H](CCCNC(=N)N)NC(=O)[C@H]([C@H](C)O)NC(=O)[C@H](CC(N)=O)NC(=O)[C@H](Cc2ccc(O)cc2)NC1=O
K [9]: 285 nM

Structure (SMILES): COc1ccc(OC(=O)N(CC(=O)O)Cc2ccc(OCCc3nc(-c4ccccc4)oc3C)cc2)cc1 [MURAGLITAZAR]
pEC50 [11]: 7.30

The remaining lines, values ahead:

pEC50 [1]: 4.96
Structure (SMILES): CCOC(=O)N1CCC(CN(Cc2ccc(Cl)cc2)Cc2ccc([N+](=O)[O-])s2)C1 (centres undefined) [SR9009]

pIC50 [3]: 7.00
Structure (SMILES): O=C(NCCS(=O)(=O)c1ccc(C(F)(F)F)cn1)c1ccc(Cl)cc1

pEC50 [5]: 7.82
pEC50 [6]: 6.00
pEC50 [7]: 6.01
Structure (SMILES): CCCc1c(OCCCOc2ccc(OCC(=O)O)cc2)ccc(C(C)=O)c1O

pEC50 (Vitamin D3 receptor): 6.02
Structure (SMILES): C=C1/C(=C\C=C2/CCC[C@]3(C)[C@@H]([C@H](C)/C=C/[C@H](C)C(C)C)CC[C@@H]23)C[C@@H](O)C[C@@H]1O [DOXERCALCIFEROL]

pEC50 [10]: 7.38
Structure (SMILES): COC(=O)C(Cc1ccc(OCCn2c(=O)sc3cc(C(=O)c4ccccc4)ccc32)cc1)C(=O)OC

pEC50 [12]: 5.68
Structure (SMILES): O=C(O)Cc1cccc(OCCCN(Cc2cccc(C(F)(F)F)c2Cl)CC(c2ccccc2)c2ccccc2)c1

pEC50 [13]: 6.05
Structure (SMILES): O=C(O)CCCc1cc2cc(Cl)ccc2n1S(=O)(=O)c1ccc2ncsc2c1 [LANIFIBRANOR]
